Patent publication US8466113B2, “4-isopropylphenyl glucitol compounds as SGLT1 inhibitors” (Taisho Pharmaceutical Co., Ltd., priority 2009, dated 2013)

Key:
human SGLT1 = target: T1, human SGLT1 (Homo sapiens, UniProt P13866); experiment: Inhibition test for sodium-dependent sugar uptake in CHO-K1 cells stably expressing human SGLT1; assay type: cell-based; settings: [14C]methyl α-D-glucopyranoside uptake, 37° C., 30 minutes, read-out: IC50 for hSGLT1
T1 construct: expressed in transfected cells; host or cells: CHO-K1
T1 sequence (P13866 1-664): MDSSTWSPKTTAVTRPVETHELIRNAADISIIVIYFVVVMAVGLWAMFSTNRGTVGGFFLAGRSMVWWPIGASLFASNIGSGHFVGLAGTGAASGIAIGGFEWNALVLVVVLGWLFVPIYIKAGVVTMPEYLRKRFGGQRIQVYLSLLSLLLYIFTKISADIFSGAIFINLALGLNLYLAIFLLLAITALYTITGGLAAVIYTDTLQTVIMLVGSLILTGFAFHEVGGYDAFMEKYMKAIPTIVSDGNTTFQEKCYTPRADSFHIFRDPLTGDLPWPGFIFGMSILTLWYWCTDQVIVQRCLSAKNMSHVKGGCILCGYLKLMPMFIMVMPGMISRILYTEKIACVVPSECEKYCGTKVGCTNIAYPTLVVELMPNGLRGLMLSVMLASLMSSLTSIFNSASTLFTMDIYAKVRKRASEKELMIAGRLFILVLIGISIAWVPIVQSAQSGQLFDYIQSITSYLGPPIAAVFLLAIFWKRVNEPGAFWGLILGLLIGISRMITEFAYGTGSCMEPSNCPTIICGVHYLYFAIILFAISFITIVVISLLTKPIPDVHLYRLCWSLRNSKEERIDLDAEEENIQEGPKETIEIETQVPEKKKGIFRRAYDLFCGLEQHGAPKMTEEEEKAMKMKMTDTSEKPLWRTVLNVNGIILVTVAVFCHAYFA
Experimental: (1) Creation of CHO-K1 Cells Stably Expressing Human SGLT1
A plasmid vector expressing human SGLT1 protein was transfected into CHO-K1 cells using lipofectamine 2000 (Invitrogen). The cells were cultured in the presence of 500 μg/mL geneticin to select resistant strains, followed by screening in the system shown below using sugar uptake capacity as an indicator to obtain SGLT1-expressing cells.
(3) Inhibition Test for Sodium-Dependent Sugar Uptake in Stably Expressing Cells
The stably expressing cells prepared above were used in the following test.
Pretreatment buffer (140 mM choline chloride, 2 mM KCl, 1 mM CaCl2, 1 mM MgCl2, 10 mM HEPES/5 mM Tris, pH 7.4) was added in a volume of 200 μL to the cells stably expressing SGLT1 or 2 mL for Method A and 200 μL for Method B to the cells stably expressing SGLT2, followed by incubation for 20 minutes. The pretreatment buffer was removed and replaced by uptake buffer containing a test compound (1 mM methyl α-D-glucopyranoside (containing [^14C]methyl α-D-glucopyranoside), 140 mM NaCl, 2 mM KCl, 1 mM CaCl2, 1 mM MgCl2, 10 mM HEPES/5 mM Tris, pH 7.4) in a volume of 75 μL for SGLT1 and SGLT2 in Method B or 200 μL for SGLT2 in Method A. Uptake reaction was performed at 37° C. for 30 minutes (SGLT1) or 60 minutes (SGLT2). After the reaction, the cells were washed twice with washing buffer (10 mM methyl α-D-glucopyranoside, 140 mM choline chloride, 2 mM KCl, 1 mM CaCl2, 1 mM MgCl2, 10 mM HEPES/5 mM Tris, pH 7.4) in a volume of 200 μL for SGLT1 and SGLT2 in Method B or 2 mL for SGLT2 in Method A, and then dissolved in a 0.25 M NaOH solution (75 μL for SGLT1 and SGLT2 in Method B or 400 μL for SGLT2 in Method A). A liquid scintillator (Perkin Elmer) was added and mixed well with each sample, followed by measurement of radioactivity using a β-ray analyzer. For the control group, uptake buffer containing no test compound was prepared. Moreover, another uptake buffer containing choline chloride instead of NaCl was also prepared for basal uptake.
For determination of IC50 values, test compounds prepared at 6 appropriate concentrations were used and their concentrations required for 50% inhibition of the amount of sugar uptake (IC50 values) were calculated relative to the amount of sugar uptake in the control group (100%).

[1] = system: streptozotocin (STZ)-induced diabetic rats; experiment: Oral glucose tolerance test (OGTT) in streptozotocin-induced diabetic model rats; assay type: in vivo, rat; settings: oral 1 mg/kg, glucose 2 g/kg, versus vehicle control
Experimental: (1) Preparation of Diabetic Model Rats
SD/IGS rats at 7 weeks of age (male, Charles River Laboratories Japan Inc.) were fasted for about 16 hours and then injected with 50 mg/kg streptozotocin (STZ) via the tail vein under ether anesthesia to prepare diabetic model rats. Similarly, another group of SD/IGS rats at 7 weeks of age was injected with 1.25 mmol/L citric acid in physiological saline (1 mL/kg) via the tail vein under ether anesthesia to prepare normal control rats. At one week after injection of STZ or 1.25 mmol/L citric acid in physiological saline, the rats were provided for an oral glucose tolerance test.
(2) Oral Glucose Tolerance Test (OGTT)
After the diabetic model rats were fasted for about 16 hours, drug groups were each orally administered with a drug (1 mg/kg) dissolved in a 0.5% aqueous carboxymethylcellulose sodium (CMC) solution, while the control group was orally administered with a 0.5% aqueous CMC solution alone. The drugs used were compounds 10, 11 and 33 disclosed in WO07/136116, as well as compounds 1-2, 5-2, 6-2, 13-2 and 15-2 according to the present invention. Immediately after drug administration, a glucose solution (2 g/kg) was orally administered and blood was collected at 6 points in total: before drug administration (0 hour) and 0.25, 0.5, 1, 1.5 and 2 hours after oral administration.
Blood was collected from the tail vein of each rat without anesthesia using a heparin-coated blood collection tube, and centrifuged to separate plasma. Plasma glucose concentrations were quantified by measurement with a Glucose CII-Test Wako (Wako Pure Chemical Industries, Ltd., Japan). To determine the intensity of hypoglycemic effect, the blood glucose level before drug administration was subtracted from each blood glucose level measured until one hour after oral administration in each drug group, and the resulting values were analyzed by the trapezoidal method to calculate an increment in the area under the curve for glucose (ΔAUC), which was expressed as a decrease relative to ΔAUC of the control group.

SMILES | IC50 (human SGLT1) | STZ rats OGTT % inhibition ΔAUC0-1 h (mg/dl) @1 mg/kg/po [1]
Cc1cc(/C=C/C(C)(C)C(=O)NC(C)(C)C(=O)NCCN(C)C)ccc1Cc1cc([C@@H]2O[C@H](CO)[C@@H](O)[C@H](O)[C@H]2O)c(O)cc1C(C)C [Example 1-2] | 35 nM | 74%
Cc1cc(/C=C/C(C)(C)C(=O)NC(C)(C)C(=O)N2CCC(N(C)C)CC2)ccc1Cc1cc([C@@H]2O[C@H](CO)[C@@H](O)[C@H](O)[C@H]2O)c(O)cc1C(C)C [Example 5-2] | 42 nM | 66%
Cc1cc(/C=C/C(C)(C)C(=O)NC(C)(C)C(=O)NCC(C)(C)N)ccc1Cc1cc([C@@H]2O[C@H](CO)[C@@H](O)[C@H](O)[C@H]2O)c(O)cc1C(C)C [Example 6-2] | 27 nM | 64%
COc1cc(C(C)C)c(Cc2ccc(/C=C/C(C)(C)C(=O)NC(C)(C)C(=O)NCC(C)(C)N)cc2C)cc1[C@@H]1O[C@H](CO)[C@@H](O)[C@H](O)[C@H]1O [Example 13-2] | 54 nM | 54%
COc1cc(C(C)C)c(Cc2ccc(/C=C/C(C)(C)C(=O)NC(C)(C)C(=O)NCCN(C)C)cc2)cc1[C@@H]1O[C@H](CO)[C@@H](O)[C@H](O)[C@H]1O [Example 15-2] | 29 nM | 62%
